Results on 39 compounds are retold here after patent US4711898A, “4-quinolone derivatives having anti-inflammatory, anti-allergic, antitussive, expectorant and antithrombotic activity” (Nippon Shinyaku Co., Ltd., priority 1982, dated 1987).

The subject of assay [1] is SRS-A (slow reacting substance of anaphylaxis) contraction of ileum. Kind of assay: Anti-SRS-A action using ileus of guinea pigs. In kind it is cell-based, Hartley strain male guinea pigs. As to conditions: 5 min, guinea pig ileum, SRS-A 20 units, compound five minutes before; for inhibition at 1 µM: Cavia porcellus, 1/1000 mM, read-out: 1/1000 mM SRS-A Inhibition Ratio %; for 1/1000 mM SRS-A Inhibition Ratio %: Na salt, 1 µM. The method, then: (§1) The compounds of the present invention have been evaluated for their anti-allergenic action by passive cutaneous anaphylatic assay (PCA) in rats and by measuring the anti-SRS-A action using ileus of guinea pigs.
Anti-SRS-A action (An anti-acton against slow reacting substance of anaphylaxis).
Hartley strain male guinea pigs (300 to 350 grams body weight) are killed and 1.0 to 1.5 cm of ileum is immeidiately excised from ileocecal parts and is suspended in 10 ml of Tyrode solution (95% 02 -5% CO2 saturation) containing 10^-7 g/ml of atropine and 10^-6 g/ml of pyrilamine. SRS-A (20 units) (the amount of SRS-A showing the same contradiction as 5 ng of histamine is defined as 1 unit) prepared by using sensitized guinea pig lung is given to cause contraction there. Then antagonistic action of test compounds treated five minutes ago against the contraction is measured and recorded via isotonic transducer. [formula] in which A' is a height of contraction of SRS-A+test compound and A is that of SRS-A.

Assay [2] concerns passive cutaneous anaphylaxis (DNP-As homocytotropic antiserum). As to the kind of experiment: passive cutaneous anaphylatic assay (PCA) in rats. In kind it is in vivo, Wistar strain rats. As to conditions: 10 mg/kg orally, one hour before antigen; for inhibition in vivo at 10 mg/kg: Rattus norvegicus, po, 1 h, read-out: PCA Inhibition Ratio %; for PCA Inhibition Ratio %: Na salt. The method, then: as §1
(i) Antiserum abundant in homocytotropic antibody is prepared by the same method as Tada and Okumura did (cf. Journal of Immunology, vol. 106, page 1002, 1971). Thus, 1 mg (calculated as an amount of protein) of DNP-As (2,4-dinitrophenylcoupled ascaris extract) prepared by methods of Strejan and Campbell (Journal of Immunology, vol. 98, p. 893, 1967) and of Eisen (Journal of Amer. Chem. Soc., vol. 75, p 4593, 1953) and 1×10^10pertussis vaccine are administered to each paw of Wistar strain rats (180 to 200 grams body weights) by dividing the dose by four. Five days later, 0.5 mg of DNP-As is administered into muscle of back. Eight days later from the initial immunization, blood is taken from discending aorta under anesthetizing with ether, the resulting serum is stored at -80° and is melted before use.
(ii) Effect of tested compounds is investigated as follows:
Anti-serum obtained by th method (i) is diluted with physiological saline solution double by double successively and 0.05 ml of each diluted solution is administered into the back of Wistar strain rats (140 to 160 grams body weight) intradermally. After 72 hours, a solution of 2 mg (calculated as protein) of DNP-As and 2.5 mg of Evans Blue dissolved in 1 ml of physiological saline solution is administered intraveously at a dose of 5 ml/kg. After 30 minutes from the antigen solution administration, the animals are killed and the diameters of blue spots which appeared at the place where antiserum was administered were measured. The PCA test is conducted by the same method as already described using a diluted solutions of antiserum which always show 10 mm or more of spot diameters and the effect of the test compounds is judged. Thus antiserum diluted solutions are administered into two places in the back. Test compounds are administered orally at the dose of 10 mg/kg one hour before administration of the antigen solution. From the skin of reacted parts of killed animals, leaked or emitted dyestuff is extracted and the amount of the dyestuff is measured. The inhibition ratio is calculated by the following expression: [formula] in which A' is an amount of dyestuff in the group treated with the test compounds and A is that in the control group.

For the compound `CCOC(=O)c1cccc2c(=O)cc(-c3ccccc3F)[nH]c12` [2-Fluoro, Ethyl], the inhibition at 1 µM in assay [1] was 33.3%. For the same compound, the inhibition in vivo at 10 mg/kg in assay [2] was 28.5%.
As to `CCOC(=O)c1cccc2c(=O)cc(-c3ccc(OC)cc3)[nH]c12` [4-Methoxy, Ethyl], the inhibition at 1 µM in assay [1] was determined as 20.3%. Moreover, the inhibition in vivo at 10 mg/kg in assay [2] turned out to be 3.2%.
Regarding `O=C(O)c1ccc2c(c1)C(=O)CC(c1ccccc1)=N2` [Example 2, 2-Phenyl-4-quinolone-6-carboxylic acid], in assay [1], the inhibition at 1 µM is 23.9%. In addition, in assay [2], the inhibition in vivo at 10 mg/kg is 22.5%.
In the case of `O=C(O)c1ccc2[nH]c(-c3ccccc3)cc(=O)c2c1` [Example 3, Sodium 2-phenyl-4-quinolone-6-carboxylate], the inhibition at 1 µM in assay [1] worked out at 85%. Besides, in assay [2], the inhibition in vivo at 10 mg/kg came out at 27.9%.
Taken in the same sequence, the figures for `CC(C)OC(=O)c1ccc2c(c1)C(=O)CC(c1ccccc1)=N2` [Example 5, Isopropyl 2-phenyl-4-quinolone-6-carboxylate] were 36.7% and 26.2%.
Consider `O=C(OCCc1ccccc1)c1ccc2c(c1)C(=O)CC(c1ccccc1)=N2` [Example 6, Phenethyl 2-phenyl-4-quinolone-6-carboxylate], for which the inhibition at 1 µM in assay [1] is 22.8%. Besides, the inhibition in vivo at 10 mg/kg in assay [2] is 24.3%.
Turning to `COC(=O)c1ccc2c(c1)c(=O)cc(-c1ccccc1)n2C` [Example 7, Methyl 1-methyl-2-phenyl-4-quinolone-6-carboxylate], the inhibition at 1 µM in assay [1] stood at 100%. The inhibition in vivo at 10 mg/kg in assay [2] was 21.3%.
Turning to `Cn1c(-c2ccccc2)cc(=O)c2cc(C(=O)O)ccc21` [Example 8, 1-Methyl-2-phenyl-4-quinolone-6-carboxylic acid], the inhibition at 1 µM in assay [1] was 22%. Besides, in assay [2], the inhibition in vivo at 10 mg/kg turned out to be 16.2%.
In the case of `COC(=O)c1ccc2c(c1)C(=O)C(C)C(c1ccccc1)=N2` (stereo not drawn) [Example 9, Methyl 3-methyl-2-phenyl-4-quinolone-6-carboxylate], the inhibition at 1 µM in assay [1] worked out at 54.8%. In addition, the inhibition in vivo at 10 mg/kg in assay [2] amounted to 26.8%.
With `Cc1c(-c2ccccc2)[nH]c2ccc(C(=O)O)cc2c1=O` [Example 10], in assay [1], the inhibition at 1 µM came out at 21%. For the same compound, the inhibition in vivo at 10 mg/kg in assay [2] came out at 22.4%.
As for `C=CCc1c(-c2ccccc2)[nH]c2ccc(C(=O)OC)cc2c1=O` [Example 11], the inhibition at 1 µM in assay [1] amounted to 37.5%. In addition, in assay [2], the inhibition in vivo at 10 mg/kg amounted to 20.1%.
For the compound `C=CCc1c(-c2ccccc2)[nH]c2ccc(C(=O)O)cc2c1=O` [Example 12], in assay [1], the inhibition at 1 µM is 22.3%. Also, the inhibition in vivo at 10 mg/kg in assay [2] came out at 17.5%.
Taken in the same sequence, the figures for `CCn1c(-c2ccccc2)cc(=O)c2cc(C(=O)OC)ccc21` [Example 13] were 25.4% and 18.9%.
As to `CCn1c(-c2ccccc2)cc(=O)c2cc(C(=O)O)ccc21` [Example 14], the inhibition at 1 µM in assay [1] worked out at 28.9%. For the same compound, the inhibition in vivo at 10 mg/kg in assay [2] stood at 16.4%.
Consider `CCCn1c(-c2ccccc2)cc(=O)c2cc(C(=O)OC)ccc21` [Example 15], for which, in assay [1], the inhibition at 1 µM turned out to be 65.3%. Besides, the inhibition in vivo at 10 mg/kg in assay [2] was found to be 19.7%.
Regarding `CCCn1c(-c2ccccc2)cc(=O)c2cc(C(=O)O)ccc21` [Example 16], the inhibition at 1 µM in assay [1] came out at 19.7%. Also, the inhibition in vivo at 10 mg/kg in assay [2] came to 23.4%.
With `C=CCn1c(-c2ccccc2)cc(=O)c2cc(C(=O)OC)ccc21` [Example 17], in assay [1], the inhibition at 1 µM came out at 22.7%. Moreover, in assay [2], the inhibition in vivo at 10 mg/kg worked out at 20.4%.
On to `C=CCn1c(-c2ccccc2)cc(=O)c2cc(C(=O)O)ccc21` [Example 18], for which the inhibition at 1 µM in assay [1] amounted to 24.3%. Moreover, the inhibition in vivo at 10 mg/kg in assay [2] came to 26.5%.
Taken in the same sequence, the figures for `CCCCCCn1c(-c2ccccc2)cc(=O)c2cc(C(=O)OC)ccc21` [Example 19] were 27.5% and 27%.
`O=C(O)c1ccc2[nH]c(-c3ccccc3Cl)cc(=O)c2c1` [Example 23]: in assay [1] (listed as 2-Chloro), the “1/1000 mM SRS-A Inhibition Ratio %” value worked out at 24.9%. Further, the “PCA Inhibition Ratio %” value in assay [2] (listed as 2-Chloro) is reported as 18.7%.
Regarding `COC(=O)c1ccc2[nH]c(-c3ccccc3Br)cc(=O)c2c1` [Example 24], the inhibition at 1 µM in assay [1] was 55.8%. Also, in assay [2], the inhibition in vivo at 10 mg/kg is 23.4%.
For `O=C(O)c1ccc2[nH]c(-c3ccccc3Br)cc(=O)c2c1` [Example 25], the inhibition at 1 µM in assay [1] came to 25.7%. Also, the inhibition in vivo at 10 mg/kg in assay [2] turned out to be 17.2%.
For `COC(=O)c1ccc2[nH]c(-c3ccccc3F)cc(=O)c2c1` [Example 26], the inhibition at 1 µM in assay [1] was determined as 38.5%. Also, in assay [2], the inhibition in vivo at 10 mg/kg was 20.6%.
Taken in the same sequence, the figures for `O=C(O)c1ccc2[nH]c(-c3ccccc3F)cc(=O)c2c1` [Example 27] were 23.4% and 25.6%.
For the compound `O=C(O)c1ccc2[nH]c(-c3cccc(Cl)c3)cc(=O)c2c1` [Example 30], the inhibition at 1 µM in assay [1] was 24.5%. Besides, in assay [2], the inhibition in vivo at 10 mg/kg is 43%.
As to `O=C(O)c1ccc2[nH]c(-c3cccc(Cl)c3)cc(=O)c2c1` [Example 31], in assay [1] (listed as 3-Chloro), the “1/1000 mM SRS-A Inhibition Ratio %” value is 25.5%. In addition, the “PCA Inhibition Ratio %” value in assay [2] (listed as 3-Chloro) amounted to 24.4%.
In the case of `COC(=O)c1ccc2[nH]c(-c3ccc(Cl)cc3)cc(=O)c2c1` [Example 32], the inhibition at 1 µM in assay [1] was determined as 20.6%. For the same compound, the inhibition in vivo at 10 mg/kg in assay [2] turned out to be 24.4%.
Regarding `O=C(O)c1ccc2[nH]c(-c3ccc(Cl)cc3)cc(=O)c2c1` [Example 33], in assay [1], the inhibition at 1 µM amounted to 22.5%. For the same compound, the inhibition in vivo at 10 mg/kg in assay [2] was found to be 22.3%.
With `COC(=O)c1ccc2[nH]c(-c3ccc(Cl)cc3Cl)cc(=O)c2c1` [Example 34], in assay [1], the inhibition at 1 µM was found to be 19.3%. In addition, the inhibition in vivo at 10 mg/kg in assay [2] came out at 17.4%.
For the compound `O=C(O)c1ccc2[nH]c(-c3ccc(Cl)cc3Cl)cc(=O)c2c1` [Example 35], the inhibition at 1 µM in assay [1] came out at 25.6%. Further, in assay [2], the inhibition in vivo at 10 mg/kg worked out at 39.4%.
Regarding `O=C(O)c1ccc2[nH]c(-c3ccc(Cl)cc3Cl)cc(=O)c2c1` [Example 36], in assay [1] (listed as 2,4-Dichloro), the “1/1000 mM SRS-A Inhibition Ratio %” value was 14.5%. For the same compound, the “PCA Inhibition Ratio %” value in assay [2] (listed as 2,4-Dichloro) came to 20.4%.
Consider `COC(=O)c1ccc2[nH]c(-c3ccc(Cl)c(Cl)c3)cc(=O)c2c1` [Example 37], for which the inhibition at 1 µM in assay [1] is 24.3%. In addition, in assay [2], the inhibition in vivo at 10 mg/kg was 17.1%.
For the compound `O=C(O)c1ccc2[nH]c(-c3cc(Cl)ccc3Cl)cc(=O)c2c1` [Example 40], the inhibition at 1 µM in assay [1] was 27.5%. The inhibition in vivo at 10 mg/kg in assay [2] stood at 25.4%.
For the compound `Cc1ccccc1-c1cc(=O)c2cc(C(=O)O)ccc2[nH]1` [Example 43], the “1/1000 mM SRS-A Inhibition Ratio %” value in assay [1] (listed as 2-Methyl) is given as 17.3%. Besides, the “PCA Inhibition Ratio %” value in assay [2] (listed as 2-Methyl) was 24.8%.
Take `CCc1ccccc1-c1cc(=O)c2cc(C(=O)OC)ccc2[nH]1` [Example 44]: the inhibition at 1 µM in assay [1] amounted to 41.3%. Also, the inhibition in vivo at 10 mg/kg in assay [2] is 18%.
Regarding `CCc1ccccc1-c1cc(=O)c2cc(C(=O)O)ccc2[nH]1` [Example 45], in assay [1], the inhibition at 1 µM turned out to be 25.4%. In assay [2], the inhibition in vivo at 10 mg/kg is 24.2%.
As to `COC(=O)c1ccc2[nH]c(-c3ccc(C)cc3)cc(=O)c2c1` [Example 46], in assay [1], the inhibition at 1 µM stood at 19.8%. In assay [2], the inhibition in vivo at 10 mg/kg amounted to 27.3%.
Taken in the same sequence, the figures for `Cc1ccc(-c2cc(=O)c3cc(C(=O)O)ccc3[nH]2)cc1` [Example 47] were 18.9% and 17.3%.
Consider `COC(=O)c1ccc2[nH]c(-c3ccc(C(C)C)cc3)cc(=O)c2c1` [Example 48], for which the inhibition at 1 µM in assay [1] worked out at 24.2%. Besides, in assay [2], the inhibition in vivo at 10 mg/kg amounted to 26.4%.
